These results are taken from PubChem BioAssay (NCI).

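96-well plates; 48 h exposure; 5 concentrations. Endpoints by linear interpolation between flanking doses. Not reached: highest tested concentration assigned. GI50 = concentration required for 50% inhibition of growth. Definition used: TGI = concentration required for complete inhibition of growth.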

Test systems include MOLT-4 leukemia; SNB-75 CNS; SF-539 CNS; SF-295 CNS; UACC-257 melanoma; T-47D breast; HL-60(TB) leukemia; UACC-62 melanoma; HCT-116 colon; SW-620 colon.
Common to all, as to assay: NCI anticancer screen, dose series, 48 h

As to `CC(C)(C)N1CC(OC(N)=O)C1`, the GI50 with MOLT-4 leukemia, in the assay with SNB-75 CNS, with SF-539 CNS, in the assay on SF-295 CNS, in the assay with UACC-257 melanoma and with T-47D breast was above 100 µM in each case. Moreover, the GI50 in the assay with HL-60(TB) leukemia, in the assay with UACC-62 melanoma, in the assay with HCT-116 colon and in the assay with SW-620 colon was above 100 µM throughout. Besides, the TGI in the assay on MOLT-4 leukemia, in the assay on SNB-75 CNS, with SF-539 CNS, with SF-295 CNS, in the assay with UACC-257 melanoma and in the assay with T-47D breast was above 100 µM in each case. Also, the TGI in the assay on HL-60(TB) leukemia, in the assay on UACC-62 melanoma, in the assay with HCT-116 colon and in the assay on SW-620 colon was above 100 µM in each case.

As for `CCn1cc(C(=O)N/N=C/c2cccc(F)c2)c(=O)c2cc(F)c(N3CCNC(C)C3)c(F)c21` (stereo not given), the GI50 is 1.75 µM in the assay with MOLT-4 leukemia; 1.52 µM with SNB-75 CNS; 1.59 µM in the assay on SF-539 CNS; 1.8 µM in the assay with SF-295 CNS; 1.67 µM in the assay on UACC-257 melanoma; 1.61 µM in the assay with T-47D breast. Also, the GI50 in the assay with HL-60(TB) leukemia was 1.88 µM; in the assay on UACC-62 melanoma, 1.77 µM; in the assay on HCT-116 colon, 1.75 µM; in the assay with SW-620 colon it was 1.68 µM. The TGI in the assay with MOLT-4 leukemia turned out to be 3.4 µM; in the assay with SNB-75 CNS, 2.87 µM; in the assay on SF-539 CNS, 2.96 µM; in the assay on SF-295 CNS, 3.29 µM; in the assay with UACC-257 melanoma, 3.17 µM; in the assay with T-47D breast it was 3.25 µM. For the same compound, the TGI with HL-60(TB) leukemia was determined as 3.66 µM; in the assay on UACC-62 melanoma, 3.2 µM; with HCT-116 colon it was 3.47 µM; with SW-620 colon, 3.17 µM.
